Experimental data taken from patent publication US12077503B2, “Substituted cyclic amides and their use as herbicides” (FMC CORPORATION, priority 2015, dated 2024).

Assays:
Assay type in all cases: in vivo
rice (Oryra sativa) = assay: Test B flooded paddy test; conditions: Oryza sativa, 250 g ai/ha, Flood; 0 to 100 scale where 0 is no effect and 100 is complete control; read-out: Rice plant response rating
Summary of the method: (§1)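 Greenhouse paddy pots with 2-leaf stage plants received compound by direct addition to floodwater 3 cm deep, kept at that level. Scored visually at 13–15 d versus controls (0 no effect; 100 complete control).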

[1] = system: ducksalad (Heteranthera limosa); assay: Test B flooded paddy test; conditions: Heteranthera limosa, 250 g ai/ha, Flood; 0 to 100 scale where 0 is no effect and 100 is complete control; read-out: Ducksalad plant response rating
Summary of the method: as §1

[2] = system: sedge, umbrella (small-flower umbrella sedge, Cyperus difformis); assay: Test B flooded paddy test; conditions: Cyperus difformis, 250 g ai/ha, Flood; 0 to 100 scale where 0 is no effect and 100 is complete control; read-out: Sedge, Umbrella plant response rating
Summary of the method: as §1

[3] = system: barnyardgrass (Echinochloa crus-galli); assay: Test B flooded paddy test; conditions: Echinochloa crus-galli, 250 g ai/ha, Flood; 0 to 100 scale where 0 is no effect and 100 is complete control; read-out: Barnyardgrass plant response rating
Summary of the method: as §1

[4] = system: ragweed (common ragweed, Ambrosia elatior); assay: Test A postemergence; conditions: Ambrosia artemisiifolia, post-emergence, 240 h, Postemergence, read-out: Plant response rating, Ragweed; for pest or weed control at 125 g/ha: 125 g ai/ha, visual injury after approximately 10 d, 0 to 100 scale where 0 is no effect and 100 is complete control; for pest or weed control at 31 g/ha: 31 g ai/ha, visual injury after approx. 10 d, 0 to 100 scale, 0 no effect, 100 complete control
Summary of the method: (§2)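 Greenhouse, ~10 d after spray; visual injury vs untreated controls, 0 = no effect, 100 = complete control. Preemergence: directed soil spray over planted seeds. Postemergence: plants 2–10 cm, 1–2 leaf stage. Loam/sand blend. Compound in non-phytotoxic solvent with surfactant.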

[5] = system: blackgrass (Alopecurus myosuroides); assay: Test A postemergence; conditions: Alopecurus myosuroides, post-emergence, 240 h, Postemergence, read-out: Plant response rating, Blackgrass; for pest or weed control at 125 g/ha: 125 g ai/ha, visual injury after approximately 10 d, 0 to 100 scale where 0 is no effect and 100 is complete control; for pest or weed control at 31 g/ha: 31 g ai/ha, visual injury after approx. 10 d, 0 to 100 scale, 0 no effect, 100 complete control
Summary of the method: as §2

[6] = system: Galium (catchweed bedstraw, Galium aparine); assay: Test A postemergence; conditions: Galium, post-emergence, 240 h, Postemergence, read-out: Plant response rating, Galium; for pest or weed control at 125 g/ha: 125 g ai/ha, visual injury after approximately 10 d, 0 to 100 scale where 0 is no effect and 100 is complete control; for pest or weed control at 31 g/ha: 31 g ai/ha, visual injury after approx. 10 d, 0 to 100 scale, 0 no effect, 100 complete control
Summary of the method: as §2

[7] = system: wheat (Triticum aestivum); assay: Test A postemergence; conditions: Triticum aestivum, post-emergence, 240 h, Postemergence, read-out: Plant response rating, Wheat; for plant injury at 125 g/ha: 125 g ai/ha, visual injury after approximately 10 d, 0 to 100 scale where 0 is no effect and 100 is complete control; for plant injury at 31 g/ha: 31 g ai/ha, visual injury after approx. 10 d, 0 to 100 scale, 0 no effect, 100 complete control
Summary of the method: as §2

corn (Zea mays) = assay: Test A postemergence; conditions: Zea mays, post-emergence, 240 h, Postemergence; for Corn plant response rating (crop injury, 0 = no effect, 100 = complete kill) at 125 g/ha: 125 g ai/ha, visual injury after approximately 10 d, 0 to 100 scale where 0 is no effect and 100 is complete control; for Corn plant response rating (crop injury, 0 = no effect, 100 = complete kill) at 31 g/ha: 31 g ai/ha, visual injury after approx. 10 d, 0 to 100 scale, 100 complete control
Summary of the method: as §2

Kochia (Kochia scoparia) [8] = assay: Test A postemergence; conditions: Bassia scoparia, post-emergence, 240 h, Postemergence, read-out: Plant response rating, Kochia; for pest or weed control at 125 g/ha: 125 g ai/ha, visual injury after approximately 10 d, 0 to 100 scale where 0 is no effect and 100 is complete control; for pest or weed control at 31 g/ha: 31 g ai/ha, visual injury after approx. 10 d, 0 to 100 scale, 0 no effect, 100 complete control
Summary of the method: as §2

[9] = system: ryegrass, Italian (Italian ryegrass, Lolium multiflorum); assay: Test A postemergence; conditions: Lolium multiflorum, post-emergence, 240 h, Postemergence, read-out: Plant response rating, Ryegrass, Italian; for pest or weed control at 125 g/ha: 125 g ai/ha, visual injury after approximately 10 d, 0 to 100 scale where 0 is no effect and 100 is complete control; for pest or weed control at 31 g/ha: 31 g ai/ha, visual injury after approx. 10 d, 0 to 100 scale, 0 no effect, 100 complete control
Summary of the method: as §2

[10] = system: pigweed (Amaranthus retroflexus); assay: Test A postemergence; conditions: Amaranthus retroflexus, post-emergence, 240 h, Postemergence, read-out: Plant response rating, Pigweed; for pest or weed control at 125 g/ha: 125 g ai/ha, visual injury after approximately 10 d, 0 to 100 scale where 0 is no effect and 100 is complete control; for pest or weed control at 31 g/ha: 31 g ai/ha, visual injury after approx. 10 d, 0 to 100 scale, 0 no effect, 100 complete control
Summary of the method: as §2

[11] = system: giant foxtail (Setaria faberii); assay: Test A postemergence; conditions: Setaria faberi, post-emergence, 240 h, Postemergence, read-out: Plant response rating, Foxtail, Giant; for pest or weed control at 125 g/ha: 125 g ai/ha, visual injury after approximately 10 d, 0 to 100 scale where 0 is no effect and 100 is complete control; for pest or weed control at 31 g/ha: 31 g ai/ha, visual injury after approx. 10 d, 0 to 100 scale, 0 no effect, 100 complete control
Summary of the method: as §2

[12] = system: barnyardgrass (Echinochloa crus-galli); assay: Test A postemergence; conditions: Echinochloa crus-galli, post-emergence, 240 h, Postemergence, read-out: Plant response rating, Barnyardgrass; for pest or weed control at 125 g/ha: 125 g ai/ha, visual injury after approximately 10 d, 0 to 100 scale where 0 is no effect and 100 is complete control; for pest or weed control at 31 g/ha: 31 g ai/ha, visual injury after approx. 10 d, 0 to 100 scale, 0 no effect, 100 complete control
Summary of the method: as §2

[13] = system: ragweed (common ragweed, Ambrosia elatior); assay: Test A preemergence; conditions: Ambrosia artemisiifolia, pre-emergence, 240 h, Preemergence; for pest or weed control at 31 g/ha: 31 g ai/ha, 0 to 100 scale where 0 is no effect and 100 is complete control, read-out: Ragweed plant response rating; for pest or weed control at 125 g/ha: 125 g ai/ha, visual injury rating after approximately 10 d, read-out: Ragweed plant response rating (0 to 100 scale, 0 is no effect, 100 is complete control)
Summary of the method: as §2

Kochia (Kochia scoparia) [14] = assay: Test A preemergence; conditions: Bassia scoparia, pre-emergence, 240 h, Preemergence; for pest or weed control at 31 g/ha: 31 g ai/ha, 0 to 100 scale where 0 is no effect and 100 is complete control, read-out: Kochia plant response rating; for pest or weed control at 125 g/ha: 125 g ai/ha, visual injury rating after approximately 10 d, read-out: Kochia plant response rating (0 to 100 scale, 0 is no effect, 100 is complete control)
Summary of the method: as §2

[15] = system: ryegrass, Italian (Italian ryegrass, Lolium multiflorum); assay: Test A preemergence; conditions: Lolium multiflorum, pre-emergence, 240 h, Preemergence; for pest or weed control at 31 g/ha: 31 g ai/ha, 0 to 100 scale where 0 is no effect and 100 is complete control, read-out: Ryegrass, Italian plant response rating; for pest or weed control at 125 g/ha: 125 g ai/ha, visual injury rating after approximately 10 d, read-out: Ryegrass, Italian plant response rating (0 to 100 scale, 0 is no effect, 100 is complete control)
Summary of the method: as §2

[16] = system: pigweed (Amaranthus retroflexus); assay: Test A preemergence; conditions: Amaranthus retroflexus, pre-emergence, 240 h, Preemergence; for pest or weed control at 31 g/ha: 31 g ai/ha, 0 to 100 scale where 0 is no effect and 100 is complete control, read-out: Pigweed plant response rating; for pest or weed control at 125 g/ha: 125 g ai/ha, visual injury rating after approximately 10 d, read-out: Pigweed plant response rating (0 to 100 scale, 0 is no effect, 100 is complete control)
[17] = system: giant foxtail (Setaria faberii); assay: Test A preemergence; conditions: Setaria faberi, pre-emergence, 240 h, Preemergence; for pest or weed control at 125 g/ha: 125 g ai/ha, visual injury rating after approximately 10 d, read-out: Foxtail, Giant plant response rating (0 to 100 scale, 0 is no effect, 100 is complete control); for pest or weed control at 31 g/ha: 31 g ai/ha, 0 to 100 scale (0 no effect, 100 complete control), read-out: Plant response rating, Foxtail, Giant
Summary of the method: as §2

[18] = system: barnyardgrass (Echinochloa crus-galli); assay: Test A preemergence; conditions: Echinochloa crus-galli, pre-emergence, 240 h, Preemergence; for pest or weed control at 125 g/ha: 125 g ai/ha, visual injury rating after approximately 10 d, read-out: Barnyardgrass plant response rating (0 to 100 scale, 0 is no effect, 100 is complete control); for pest or weed control at 31 g/ha: 31 g ai/ha, 0 to 100 scale (0 no effect, 100 complete control), read-out: Plant response rating, Barnyardgrass
Summary of the method: as §2

Structure (SMILES) | pest or weed control at 250 g/ha (rice (Oryra sativa)) | pest or weed control at 250 g/ha [1] | pest or weed control at 250 g/ha [2] | pest or weed control at 250 g/ha [3] | pest or weed control at 125 g/ha [4] | pest or weed control at 31 g/ha [4] | pest or weed control at 125 g/ha [5] | pest or weed control at 31 g/ha [5] | pest or weed control at 125 g/ha [6] | pest or weed control at 31 g/ha [6] | plant injury at 125 g/ha [7] | plant injury at 31 g/ha [7] | Corn plant response rating (crop injury, 0 = no effect, 100 = complete kill) at 125 g/ha (corn (Zea mays)) | Corn plant response rating (crop injury, 0 = no effect, 100 = complete kill) at 31 g/ha (corn (Zea mays)) | pest or weed control at 125 g/ha (Kochia (Kochia scoparia) [8]) | pest or weed control at 31 g/ha (Kochia (Kochia scoparia) [8]) | pest or weed control at 125 g/ha [9] | pest or weed control at 31 g/ha [9] | pest or weed control at 125 g/ha [10] | pest or weed control at 31 g/ha [10] | other results
O=C(Nc1ccc(F)c(F)c1F)[C@H]1C(=O)N(C2CC2)CC[C@@H]1c1ccc(F)cc1 [Compound 1004] | 0% | 60% | 0% | 0% | 0% | 0% | 0% | 0% | 0% | 0% | 0% | 0% | 0% | 0% | 0% | 0% | 0% | 0% | 0% | 0% | pest or weed control at 125 g/ha [11]: 0%; pest or weed control at 31 g/ha [11]: 0%; pest or weed control at 125 g/ha [12]: 0%; pest or weed control at 31 g/ha [12]: 0%; pest or weed control at 31 g/ha [13]: 0%; pest or weed control at 125 g/ha [13]: 0%; pest or weed control at 31 g/ha (Kochia (Kochia scoparia) [14]): 0%; pest or weed control at 125 g/ha (Kochia (Kochia scoparia) [14]): 0%; pest or weed control at 31 g/ha [15]: 0%; pest or weed control at 125 g/ha [15]: 0%; pest or weed control at 31 g/ha [16]: 0%; pest or weed control at 125 g/ha [16]: 0%; pest or weed control at 125 g/ha [17]: 30%; pest or weed control at 31 g/ha [17]: 0%; pest or weed control at 125 g/ha [18]: 0%; pest or weed control at 31 g/ha [18]: 0%
O=C(Nc1cccc(Cl)c1F)[C@H]1C(=O)N(C2CC2)CC[C@@H]1c1ccc(F)cc1 [Compound 1006] | 0% | 0% | 0% | 0% | 10% | 10% | 0% | 0% | 0% | 0% | 0% | 0% | 10% | 0% | 0% | 0% | 0% | 0% | 0% | 0% | pest or weed control at 125 g/ha [11]: 0%; pest or weed control at 31 g/ha [11]: 0%; pest or weed control at 125 g/ha [12]: 0%; pest or weed control at 31 g/ha [12]: 0%; pest or weed control at 31 g/ha [13]: 0%; pest or weed control at 125 g/ha [13]: 0%; pest or weed control at 31 g/ha (Kochia (Kochia scoparia) [14]): 0%; pest or weed control at 125 g/ha (Kochia (Kochia scoparia) [14]): 0%; pest or weed control at 31 g/ha [15]: 0%; pest or weed control at 125 g/ha [15]: 0%; pest or weed control at 31 g/ha [16]: 0%; pest or weed control at 125 g/ha [16]: 0%; pest or weed control at 125 g/ha [17]: 0%; pest or weed control at 31 g/ha [17]: 0%; pest or weed control at 125 g/ha [18]: 0%; pest or weed control at 31 g/ha [18]: 0%
